Here are results for 20 compounds from patent US20070244076A1, “Site and Rate Selective Prodrug Formulations of D609 with Antioxidant and Anticancer Activity” (priority 2003, published 2007).

Structures can show the parent of a compound that is named as a salt. Numbered stars: 1 amine (or outer) side, 2 acyl side, 3 side chain; on linkers, the order of the positions; unused ones are H or OH. Bridge positions count the residues as written; N and C are the ends. Square brackets hold non-standard residues; d marks the D form. Peptide text beside a SMILES is read from it. I, II: the chains in the order shown. Actinocin(9to1) = Cc1c2oc3c(C)ccc(C(=O)[*:1])c3nc-2c(C(=O)[*:2])c(N)c1=O; NMeV = CN[C@H](C(=O)O)C(C)C; Sar = CNCC(=O)O Some results are limits rather than exact numbers.

For data set [1] the following is noted: cited from earlier work.
The subject of data set [2] is sphingomyelin synthase (SMS). The experiment in a line: SMS activity in U937 cell lysates with inhibitor added (cell lysate-based in vitro assay). Type of data set: biochemical, Human. The conditions noted are these: 30 min at 30° C. On the procedure: (§1) In this study, p-nitrophenyl-phosphorylcholine (pNPP, 40 mM) was incubated with 2 U/ml phospholipase C (Type XI from B. cereus) in the presence or absence of various concentrations of inhibitors for 2 hrs at 37° C. The amount of the cleaved substrate pNPP was quantified by determination of the optical density at 410 nm using an ELISA reader. The results are expressed as percent of vehicle control and presented as means±SEM (n=3) (FIG. 9A). NBD-C6-ceramide and PC were incubated with U937 cell lysates containing 50 μg protein in the presence or absence of various concentrations of inhibitors for 30 min at 30° C. The formation of NBD-C6-sphingomyelin as analyzed by TLC and quantified by determination of the fluorescent intensity of NBD-C6-sphingomyelin using a phosphorimager. The results are expressed as percent of vehicle control (FIG. 9B). U937 cells were incubated with different concentrations of inhibitors for 48 hours.

Data set [3] addresses phospholipase C (Type XI from B. cereus) (Bacillus cereus, UniProt P09598). Type of data set: biochemical. The conditions noted are these: 2 hrs at 37° C., pNPP 40 mM. On the procedure: as §1
The test system of data set [4] is Porcine liver esterase (PLE). The data set is described as follows: Esterase-catalyzed hydrolysis of D609 prodrugs. The class given is in vitro ADME. The conditions noted are these: for T1/2 / kobs: 300 μM, 0.1 unit/ml PLE, 37° C., pH 7.4. On the procedure:
FIG. 18A, FIG. 18B, FIG. 18C: Esterase-catalyzed hydrolysis of D609 prodrugs. Prodrugs (300 μM in 15% DMSO/PBS, pH 7.4), 1 (FIG. 18A), 2 (FIG. 18B) and 3 (FIG. 18C), were incubated at 37° C. in the presence of 0.1 unit/ml PLE. […] The data are presented as the mean±SEM of three independent assays.
To determine the hydrolytic property of D609 prodrugs 1, 2, and 3 (300 μM in 15% DMSO/PBS, pH7.4), these prodrugs were incubated with 0.1 unit/ml PLE at 37° C. After various times during incubation, the rate of hydrolysis of these D609 prodrugs was monitored by HPLC analysis. […] The concentration of D609 (μM) was calculated based on a linear D609-DTNB standard curve. The pseudo-first-order plots for the hydrolysis of these prodrugs were constructed from the logarithm of remaining ester versus time (FIG. 18). The end points of the reaction (150 min) were defined as when the hydrolysis of these prodrugs was over 99% complete and the release of D609 reached plateau. The pseudo-first-order rate constant (Kobs) and T1/2 (=0.693/Kobs) were calculated based on the slope of the linear portion of the curve for each of these prodrugs and are presented in Table 1 (Gilmer et al., 2002).

For data set [5] the following is noted: previously untreated chronic myelogenous leukemia; cited from earlier work.
In a further data set the test system is U937 cells. The data set is described as follows: U937 apoptosis, Annexin V-FITC staining and flow cytometry. The class given is cell-based, Human. The conditions noted are these: for induction of apoptosis: 24 hr, low dose of H7 (25 μM) or ceramide (5 μM). On the procedure:
It is well known that ceramide functions as a negative cell regulator that can induce cell cycle arrest, senescence or apoptosis. In contrast, DAG stimulates cell proliferation and promotes cell survival, primarily via activation of PKC. To determine if the changes in the levels of ceramide and DAG resulting from SMS inhibition contribute to D609-induced apoptosis in U937 cells, the cells were incubated with vehicle, H7 (a PKC inhibitor), ceramide, or H7 plus ceramide. U937 cells (1×10^6/ml) were incubated with 5 μM C6-ceramide and 25 μM H7 alone or combination for 24 hr at 37° C. Apoptosis of the cells was measured by Annexin V-FITC staining and flow cyotmetry and expressed as percent of Annexin V positive cells. a, p<0.05 vs Control; b, p<0.05 vs H7- or C6-treated cells (FIG. 11).
In these experiments, U937 cells were pre-incubated with PMA (25 nM) for 30 min. and then were cultured with vehicle or D609 (150 μM) for 24 hrs.
For orientation: A flow cytometer gives signals particle by particle.

For data set [6] the following is noted: Chevion et al., 1997; cited from earlier work.
The test system of the next data set is alkaline phosphatase. The conditions noted are these: 222 μM, 3.125 U/ml, pH 9.0, 37° C.
The conditions of data set [7]: cited from earlier work. The source holds these as a separate data set.

phospholipase C (Type XI from B. cereus), sequence (P09598 39-283 limits assumed): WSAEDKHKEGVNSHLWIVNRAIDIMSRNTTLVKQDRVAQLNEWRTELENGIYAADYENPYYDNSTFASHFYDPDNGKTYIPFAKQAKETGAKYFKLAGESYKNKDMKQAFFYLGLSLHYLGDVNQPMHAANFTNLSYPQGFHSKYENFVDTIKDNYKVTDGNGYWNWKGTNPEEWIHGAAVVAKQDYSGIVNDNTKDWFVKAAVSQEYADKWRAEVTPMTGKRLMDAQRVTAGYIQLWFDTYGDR

With `COc1cccc2c1C(=O)c1c(O)c3c(c(O)c1C2=O)C[C@@](O)(C(=O)CO)C[C@@H]3O[C@H]1C[C@H](N)[C@H](O)[C@H](C)O1` [Doxorubicin, 5,12-Naphthacenedione, (8s-cis)-10-[(3-amino-2,3,6-trideoxy-α-L-lyxo-hexopyranosyl)oxy]-7,8,9,10-tetrahydro-6,8,11-trihydroxy-8-(hydroxyacetyl)-1-methoxy-hydrochloride], in [1] (in vivo), the oral absorption result is listed as “absorbed poorly” and the “half-life (elimination)” value was “about 30 hr”.

For `OC1CC2CC1C1CCCC21` (stereo not shown) [Tricyclodecanol], the “inhibition of SMS activity” value in data set [2] is “devoid of any of these activities”. Also, the “inhibition of PC-PLC activity” value in data set [3] is recorded as “devoid of any of these activities”.

As for `O=NN(CCCl)C(=O)NC1CCCCC1` [Lomustine, 1-(2-chloro-ethyl)-3-cyclohexyl-1 nitrosourea], the “radioactivity excreted as degradation products” value in data set [1] (oral, 30 mg/m^2 to 100 mg/m^2, within 24 hours) is “about half”.

For `Cc1c2oc3c(C)ccc(C(=O)N[C@@H]4C(=O)N[C@H](C(C)C)C(=O)N5CCC[C@H]5C(=O)N(C)CC(=O)N(C)[C@@H](C(C)C)C(=O)O[C@@H]4C)c3nc-2c(C(=O)N[C@@H]2C(=O)N[C@H](C(C)C)C(=O)N3CCC[C@H]3C(=O)N(C)CC(=O)N(C)[C@@H](C(C)C)C(=O)O[C@@H]2C)c(N)c1=O` [Actinomycin D] (I: T[dV]P[Sar][NMeV] / II: T[dV]P[Sar][NMeV]; ester I:1-I:C, II:1-II:C; linker I:N-II:N via Actinocin(9to1)), in data set [1] (in vivo), the “excreted intact into the bile” value is recorded as “Half of the dose”, the “excreted intact into the urine” value is reported as 10%, the “half-life (elimination)” value is “about 36 hr” and the “passage of the blood-brain barrier” value was “does not pass the blood-brain barrier”.

Regarding `CC(C)(C)C(=O)OCSC(=S)OC1CC2CC1C1CCCC21` (stereo not shown) [Prodrug 3, S-methyleneoxypivalyl D609], in data set [4], the T1/2 was 23.22 min and the kobs was 0.02984 min⁻¹. Also, the “% D609 (molar recovery of D609)” value in data set [4] (complete hydrolysis by esterase) was 60%.

On to `N.N.[Cl][Pt][Cl]` [Cisplatin], for which, in data set [1] (in vivo), the oral absorption entry is recorded as “not absorbed orally”.

Regarding `S=C(S)OC1CCCCC1` [cyclohexyl xanthate], the “inhibition of SMS activity” value in [2] is given as “had no effect”. Besides, the “inhibition of PC-PLC activity” value in data set [3] is recorded as “dose-dependently inhibited”.

In the case of `COc1cccc2c1C(=O)c1c(O)c3c(c(O)c1C2=O)C[C@@](O)(C(C)=O)C[C@@H]3O[C@H]1C[C@H](N)[C@H](O)[C@H](C)O1` [Daunorubicin, 5,12-Naphthacenedione, (8S-cis)-8-acetyl-10-[(3-amino-2,3,6-trideoxy-a-L-lyxo-hexanopyranosyl)oxy]-7,8,9,10-tetrahydro-6,8,11 trihydroxy-10-methoxy-, hydrochloride], in [1] (in vivo), the oral absorption entry was “Oral absorption is poor” and the “half-life (elimination)” value is reported as “about 19 hr”.

As to `CS(=O)(=O)OCCCCOS(C)(=O)=O` [Busulfan, 1,4-butanediol dimethanesulfonate], in data set [5], the “adults obtaining hematologic remission” value is “Approximately 90%”.

On to `CC1CNCCN1S(=O)(=O)c1cccc2cnccc12` (stereo not shown) [Prodrug H7], for which, in the data set with U937 cells, the induction of apoptosis entry is reported as “modest”.

For `CCCCCCCCCCCCCC(=O)O[C@@H]1[C@@H](C)[C@@]2(O)[C@@H](C=C(CO)C[C@]3(O)C(=O)C(C)=C[C@@H]23)[C@@H]2C(C)(C)[C@]12OC(C)=O` [PMA], the “effect on D609-induced apoptosis” value in the data set with U937 cells (PMA 25 nM 30 min before D609 150 μM, 24 hrs) is recorded as “partially attenuated D609-induced apoptosis”.

`O=C1O[C@H]([C@@H](O)CO)C(O)=C1O` [vitamin C]: the E1/2 in data set [6] is recorded as 380 mV.

`CC(C)(C)OP(=O)(OCSC(=S)OC1CC2CC1C1CCCC21)OC(C)(C)C` (stereo not drawn) [compound 7, S-(methylenoxy)-D609, di(t-butoxy)phosphoryl]: the “time to complete hydrolysis” value with alkaline phosphatase was no more than 60 min.

Regarding `CO[C@@]12[C@H](COC(N)=O)C3=C(C(=O)C(C)=C(N)C3=O)N1C[C@@H]1N[C@@H]12` [Mitomycin], the “time required to reduce the serum concentration by 50%” value in data set [7] (30 mg. bolus injection) is 17 min. Besides, in [7] (in vivo), the “dose excreted unchanged in the urine” value is “Approximately 10%”.

On to `CC[C@]1(O)C[C@H]2CN(CCc3c([nH]c4ccccc34)[C@@](C(=O)OC)(c3cc4c(cc3OC)N(C=O)[C@H]3[C@@](O)(C(=O)OC)[C@H](OC(C)=O)[C@]5(CC)C=CCN6CC[C@]43[C@@H]65)C2)C1` [Vincristine], for which, in [1] (in vivo), the oral absorption result was “Unpredictable absorption”. For the same compound, the terminal half-life entry in data set [1] (plasma) is reported as “about 24 hours”.

For the compound `O=C(O)CCCc1ccc(N(CCCl)CCCl)cc1` [Chlorambucil, 4-[bis(2-chlorethyl)amino] benzenebutanoic acid], the oral absorption entry in data set [1] (in vivo) is “rapidly and completely absorbed from the gastrointestinal tract”.

In the case of `CCCCCCCCCCCCCC=CC(O)C(CO)NC(=O)CCCCC` (stereo not shown) [ceramide], in the data set on U937 cells, the induction of apoptosis entry is “modest”.

Take `CC[C@]1(O)C[C@@H]2CN(CCc3c([nH]c4ccccc34)[C@@](C(=O)OC)(c3cc4c(cc3OC)N(C)[C@H]3[C@@](O)(C(=O)OC)[C@H](OC(C)=O)[C@]5(CC)C=CCN6CC[C@]43[C@@H]65)C2)C1` [Vinblastine]: in [1] (in vivo), the oral absorption result is given as “Unpredictable absorption”, the “excreted intact into the urine” value is “Approximately 15%” and the “recovered in the feces after biliary excretion” value is given as “about 10%”. Further, in data set [1] (intravenous injection), the “plasma half-life after distribution (first)” value is listed as “approximately 1 hours” and the “plasma half-life after distribution (second)” value is roughly 72000 s. Besides, in data set [1] (usual clinical doses), the “peak concentration in plasma” value is recorded as “approximately 0.4 mM”.

`COc1cccc2c1C(=O)c1c(O)c3c(c(O)c1C2=O)C[C@@](O)([C@H](C)O)C[C@@H]3O[C@H]1C[C@H](N)[C@H](O)[C@H](C)O1` [daunorubicinol]: the “half-life (elimination)” value in [1] (in vivo) is given as “about 27 hr”.

For the compound `CC(=O)OCSC(=S)OC1CC2CC1C1CCCC21` (stereo not shown) [Prodrug 1, S-methyleneoxyacetyl D609], in [4], the T1/2 turned out to be 3.34 min and the kobs was determined as 0.2074 min⁻¹.
